Assay results taken from patent publication US20170021042A1, “Flow-Through Pathogen Reduction” (Terumo BCT Biotechnologies, LLC, priority 2015, published 2017).
Marks after values point to notes of the source that are not given here.

Key:
PhiX174 [1] = test: PhiX174 reduction in plasma with riboflavin, UV-illuminated flow-through flow cells; settings: for pathogen reduction (log reduction of PhiX174): plasma + riboflavin, irradiance 4.5 mW/cm2
Source text: The goal of this study is to obtain insight into the correlation between flow rate, channel thickness and pathogen reduction. The flow cells in this study have a relatively thicker channel and different flow configurations.
(§1) The flow cell mounts in a fixture (e.g., flow cell holder) which maintains channel thickness by applying pressure from both the top and bottom. The fixture houses eight illumination lamps driven at 800 mA with four on top and four on bottom producing an irradiance of 4.5 mW/cm2. Product can be flowed through the flow-cell, which is mounted adjacent to the light source, and then samples are taken on the back end.
The increased channel thickness results in decreased fluidic impedance requiring the use of a peristaltic pump to control flow rate instead of by gravity. The pump is calibrated prior to use to ensure flow rate accuracy.
1.5.5. Submit one sample tube for each sample for viral titer and save the other two samples for later analysis.
Below are the pathogen reduction results. In Table 6, cells with bold text indicate a sample that is within the limit of detection and cells with an asterisk indicate a sample that has six or less PhiX174 colonies at a one log dilution and is outside the limit of detection. Cells with underlined text indicate a sample is technically outside the limit of detection but has PhiX174 colonies allowing for the inferred calculation of pathogen reduction. Each cell also has dwell time in seconds and predicted dose. The lower predicted dose value takes into account the transmissivity of the plasma and flow cell. The higher predicted dose assumes that all light incident on the flow cell is absorbed by the plasma.

PhiX174 [2] = test: PhiX174 reduction in whole blood with riboflavin, UV-illuminated flow-through flow cells
Source text: This study is designed to obtain insight into the correlation between flow rate, channel thickness and pathogen reduction of whole blood. The flow cells in this study have thin channels and different flow configurations. Thin channels are used because whole blood is less transmissive than plasma.
as §1, with “(e.g. a” for “(e.g.,”, “mW/cm^2.” for “mW/cm2.”, “can be” for “are”
A peristaltic pump to control flow rate is used with the pump will located after the flow cell so that negative pressure is applied to the flow cell by the pump instead of positive pressure. The pump is calibrated prior to use to ensure flow rate accuracy.
Two flow cell configurations being tested may be referred to as “8p” and “4s×2p”. The 8p configuration has all the channels in parallel; therefore the fluid crosses one channel before exiting the flow cell. The 4s×2p configuration requires the fluid to cross four channels in series before exiting the flow cell. […]

Cc1cc2nc3c(=O)[nH]c(=O)nc-3n(C[C@H](O)[C@H](O)[C@H](O)CO)c2cc1C [riboflavin]
hemolysis, difference from hold control (whole blood): ≤ 0.06 % hemolysis
pathogen reduction (log reduction of PhiX174) (PhiX174 [1]; flow cell A, gap 3/1000" (0.0762 mm), flow rate 20 ml/min, dwell 2.9 sec): (~3.4 logs)*
pathogen reduction (log reduction of PhiX174) (PhiX174 [1]; flow cell A, gap 3/1000" (0.0762 mm), flow rate 40 ml/min, dwell 1.5 sec): (2.8 logs)*
pathogen reduction (log reduction of PhiX174) (PhiX174 [1]; flow cell B, gap 5/1000" (0.127 mm), flow rate 20 ml/min, dwell 4.9 sec): (~3.6 logs)*
pathogen reduction (log reduction of PhiX174) (PhiX174 [1]; flow cell B, gap 5/1000" (0.127 mm), flow rate 40 ml/min, dwell 2.43 sec): (2.6 logs)*
pathogen reduction (log reduction of PhiX174) (PhiX174 [1]; flow cell C, gap 12/1000" (0.305 mm), flow rate 40 ml/min, dwell 5.8 sec): (~3.9 logs)*
pathogen reduction (log reduction of PhiX174) (PhiX174 [1]; flow cell C, gap 12/1000" (0.305 mm), flow rate 80 ml/min, dwell 2.9 sec): (2.5 logs)*
pathogen reduction (log reduction of PhiX174) (PhiX174 [1]; flow cell D, gap 20/1000" (0.508 mm), flow rate 80 ml/min, dwell 4.7 sec): (2.9 logs)*
pathogen reduction, in words (PhiX174 [1]; plasma and riboflavin, all flow cells A-D): adequate pathogen reduction
pathogen reduction, in words (PhiX174 [2]): within the acceptable pathogen reduction range
